The values that follow are results of earlier work, collected in patent publication EP0266968A2, “Gelled ointment of vasodilating agent” (Cohen, Gérard G., priority 1986, dated 1988).

Each structure is given as a SMILES string.

The data set concerns penile arteries.

In the case of `COc1ccc(Cc2nccc3cc(OC)c(OC)cc23)cc1OC` [papaverine], the “erections in the organic group” value (29 organic impotent males, intracavernous injection) was “delayed, weaker and shorter erections”. The “duration of penile erections” value (40 to 160 mg injected intracavernously) is given as “approximately 2 hours”. Moreover, the “patients whose erections improved significantly” value (63 patients with angiogenic impotence, repeated intracavernous injections completed by infusion of heparinized saline, mean follow up of one year) is listed as 66%. Besides, the “haemodynamic and radiologic studies” value (done concomitantly with intracavernous injection) was “strong vasodilation in the penile arteries (even when pathologic) and diminished outflow from the cavernous bodies”.
